Laboratory results: patent US9272054B2, “Agents for the molecular imaging of serine-protease in human pathologies” (Institut National de la Sante et de la Recherche Medicale …, priority 2010, dated 2016)
Square brackets hold non-standard residues; d marks the D form. Peptide text beside a SMILES is read from it. * marks the point of attachment. DOTA = O=C(O)CN1CCN(CC(=O)O)CCN(CC(=O)*)CCN(CC(=O)O)CC1; DTPA = O=C(O)CN(CCN(CC(=O)O)CC(=O)O)CCN(CC(=O)O)CC(=O)*; CH2Cl = ClC*

Assays:
[1] = molecular target: T1, plasmin from human plasma (Homo sapiens, UniProt P00747); experiment: Determination of plasmin activity with fluorescent substrate Suc-Ala-Phe-Lys-AMC; type: biochemical; settings: for % of plasmin activity (mean): 10 nM plasmin, 15 min pre-incubation at room temperature, n=4
T1 construct: plasmin from human plasma (calbiochem); purchased calbiochem; host or cells: human plasma
Procedure: Plasmin with or without inhibitors was incubated at room temperature for 15 min. The fluorescent substrate (40 μM) was added just before reading (λ excitation 390 nm, λ emission 460 nm)
10 nM of plasmin from human plasma (calbiochem) was diluted in Tris-HCl buffer pH 7.4 50 mM, NaCl 100 mM and Tween-20 0.01%. The samples were then incubated or not with the different inhibitors (see below) for 15 minutes at room temperature. Then, the fluorescent substrate (Suc-Ala-Phe-Lys-AMC, […]) was added just before reading (λ excitation 390 nm, λ emission 460 nm) on the Fluoroskan Ascent plate reader (Thermo Fisher). The fluorescence intensity was evaluated every 10 minutes for 2 hours at 37° C.—The integration time for each measure was 20 ms.
Each inhibitor was tested in a range of concentrations from 5 nM up to 1000 nM. All the inhibitors were tested in duplicates for each concentration and 4 independent experiments were performed.
Results are presented as % of active plasmin. The differences between the concentrations of each inhibitor were evaluated by paired t-test using StatView software. Statistical significance was accepted when p<0.05.

[2] = tested on: localized lesion / thrombus; settings: rat
Excerpt: we have used several experimental models of endovascular thrombus formation in rats, which have been already developed for molecular molecular imaging of platelet activation and fibrin formation, including aneurysm of the abdominal aorta {Sarda-Mantel, 2006}, endocarditic vegetations {Rouzet, 2008}. Aneurysm of the aorta was induced by matrix decellularized xenograft in rats {Allaire, 1996}, and endocarditis by left or right ventricle catheterization followed by provoked bacteraemia {Rouzet, 2008} as previously described. These thrombus models were completed by a model of stroke, provoked by cerebral autologous thrombus emboli in rats (reference). […]
Relevant tissues (heart, abdominal aorta, or brain according to the model) were carefully dissected, frozen and cut into transverse sections of 20 μm thickness, which were exposed in a digital radioimager (Instant Imager, Packard, Meriden, USA) for 12 hours. The activity normalized to the region of interest area (mean counts/min/mm^2 corrected for background activity) was determined on autoradiograms. Quantification was performed by calculating the ratio between the activity of the relevant tissue and the activity of a region of interest drawn on either normal myocardium remote from the vegetation in the endocarditis model, supra-renal aorta sample in the AAA model, or the contralateral brain hemisphere in the stroke model. […]

plasmin = plasmin (Homo sapiens, UniProt P00747); settings: competitive inhibitor of plasmin; Chi, 1989; cited from earlier work
Sequence of plasmin (P00747 581-810 limits assumed, species assumed): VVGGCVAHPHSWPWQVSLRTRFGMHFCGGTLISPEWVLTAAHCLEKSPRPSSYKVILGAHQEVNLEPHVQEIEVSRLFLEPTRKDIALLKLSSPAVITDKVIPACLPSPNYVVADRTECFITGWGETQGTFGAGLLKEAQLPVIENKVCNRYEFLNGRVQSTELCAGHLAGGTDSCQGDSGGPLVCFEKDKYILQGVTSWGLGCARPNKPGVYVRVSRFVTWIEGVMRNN
Sequence of plasmin (P00747 97-580 partner limits assumed, species assumed): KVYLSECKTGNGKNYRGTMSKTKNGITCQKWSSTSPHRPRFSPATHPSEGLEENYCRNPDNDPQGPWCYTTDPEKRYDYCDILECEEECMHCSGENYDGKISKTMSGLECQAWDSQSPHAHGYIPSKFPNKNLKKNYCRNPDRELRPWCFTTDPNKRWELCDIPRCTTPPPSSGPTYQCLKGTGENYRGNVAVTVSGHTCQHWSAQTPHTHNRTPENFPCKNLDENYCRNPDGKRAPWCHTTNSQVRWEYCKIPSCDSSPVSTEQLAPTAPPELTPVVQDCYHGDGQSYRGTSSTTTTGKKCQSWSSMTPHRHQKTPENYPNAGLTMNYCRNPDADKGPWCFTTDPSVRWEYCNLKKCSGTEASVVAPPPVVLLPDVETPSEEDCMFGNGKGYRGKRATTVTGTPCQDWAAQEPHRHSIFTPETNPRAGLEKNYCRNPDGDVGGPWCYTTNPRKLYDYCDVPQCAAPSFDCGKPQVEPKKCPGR

T1 sequence (P00747 581-810 limits assumed): as the sequence (P00747 581-810 limits assumed, species assumed) above
T1 sequence (P00747 97-580 partner limits assumed): as the sequence (P00747 97-580 partner limits assumed, species assumed) above

| Molecule | % of plasmin activity (mean) ([1]; inhibitor 5 nM) | % of plasmin activity (mean) ([1]; inhibitor 10 nM) | % of plasmin activity (mean) ([1]; inhibitor 50 nM) | % of plasmin activity (mean) ([1]; inhibitor 100 nM) | % of plasmin activity (mean) ([1]; inhibitor 500 nM) | % of plasmin activity (mean) ([1]; inhibitor 1000 nM) | in vivo uptake by bone marrow [2] | inhibitory effect on plasmin activity (in words) ([1]; range 5 nM to 1000 nM) | Ki (plasmin) |
| --- | --- | --- | --- | --- | --- | --- | --- | --- | --- |
| CC(C)[C@@H](NC(=O)CNC(=O)CN1CCN(CC(=O)O)CCN(CC(=O)O)CCN(CC(=O)O)CC1)C(=O)N[C@@H](Cc1ccccc1)C(=O)N[C@@H](C)C(=O)CCl [PL 703, DOTA-G-dV-F-A-cmk] ({DOTA}-G[dV]FA-CH2Cl) | 94.9% | 93.6% | 86.1% | 84.1% | 58.4% | 48.4% | – | – | – |
| D-Val-Phe-Lys-COCH2Cl [VFK, reference compound] | 77.1% | 68.3% | 39.1% | 11.9% | 8.0% | 7.8% | – | – | – |
| CC(C)[C@@H](NC(=O)CNC(=O)CN(CCN(CCN(CC(=O)O)CC(=O)O)CC(=O)O)CC(=O)O)C(=O)N[C@@H](Cc1ccccc1)C(=O)N[C@@H](CCCCN)C(=O)CCl [99mTc-DTPA-G-dVFKcmk, metal not drawn] ({DTPA}-G[dV]FK-CH2Cl) | – | – | – | – | – | – | high | – | – |
| G-dV-F-A-cmk [PL 702] | 102.3% | 123.5% | 122.9% | 113.3% | 112.1% | 107.3% | – | totally abolished | – |
| CC(C)[C@@H](NC(=O)CNC(=O)CN1CCN(CC(=O)O)CCN(CC(=O)O)CCN(CC(=O)O)CC1)C(=O)N[C@@H](Cc1ccccc1)C(=O)N[C@@H](CCCCN)C(=O)CCl [PL 701, DOTA-G-dV-F—K-cmk] ({DOTA}-G[dV]FK-CH2Cl) | 83.0% | 79.1% | 68.7% | 54.6% | 34.1% | 12.8% | – | – | – |
| CC(C)[C@@H](NC(=O)CNC(=O)CN(CCN(CCN(CC(=O)O)CC(=O)O)CC(=O)O)CC(=O)O)C(=O)N[C@@H](Cc1ccccc1)C(=O)N[C@@H](CCCCN)C(=O)CCl [PL 704, DTPA-G-dV-F—K-cmk] ({DTPA}-G[dV]FK-CH2Cl) | 56.3% | 46.2% | 27.4% | 16.6% | 4.0% | 1.1% | – | – | – |
| CC(=O)N[C@@H](CC(C)C)C(=O)N[C@@H](CC(C)C)C(=O)N[C@H](C=O)CCCNC(=N)N [leupeptin, Ac-Leu-Leu-Arg-H] | – | – | – | – | – | – | – | – | ~0.1 µM |
| G-dV-F—K-cmk [PL 700] | 89.8% | 95.6% | 65.7% | 43.1% | 15.8% | 5.8% | – | – | – |
